Read-outs that look alike come from different tables or passages of the source.
What was measured:
human Gal-3 (hGal-3) = human Gal-3 (hGal-3) (Homo sapiens (Human), UniProt P17931); test: competitive binding assay: biotinylated hGal-3 binding to microplate-adsorbed asialofetuin (ASF)
Outline: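 Peroxidase activity developed with ABTS measures the biotinylated hGal-3 remaining on the asialofetuin-coated surface after competition with test compounds. Incubation ran 3 h at 4 °C, followed by 1 h with streptavidin-peroxidase at 80 ng/mL.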

human Gal-1 (hGal-1) = human Gal-1 (hGal-1) (Homo sapiens (Human), UniProt P09382); test: competitive binding assay: biotinylated hGal-1 binding to microplate-adsorbed asialofetuin (ASF); settings: Table 15; read-out: IC50 (Galectin-1 inhibition)
Outline: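 Biotinylated human Gal-1 (300-1000 ng/mL) competes with serially diluted compound for binding to ASF-coated plates, 3 h at 4° C. Bound protein detected with streptavidin-peroxidase and ABTS substrate (spectrophotometric). IC50 given as mean of several measurements.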

[1] = Gal-3 inhibition, binding of biotinylated hGal-3 to ASF, mean values, read-out: IC50
[2] = Table 5, read-out: IC50 (Gal-3 inhibition)

Chain of human Gal-1 (hGal-1) (P09382 whole entry): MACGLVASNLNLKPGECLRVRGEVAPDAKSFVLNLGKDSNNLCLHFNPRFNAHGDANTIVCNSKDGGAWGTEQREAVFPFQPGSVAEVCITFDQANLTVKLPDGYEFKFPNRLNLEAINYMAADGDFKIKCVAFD
Chain of human Gal-3 (hGal-3) (P17931 whole entry): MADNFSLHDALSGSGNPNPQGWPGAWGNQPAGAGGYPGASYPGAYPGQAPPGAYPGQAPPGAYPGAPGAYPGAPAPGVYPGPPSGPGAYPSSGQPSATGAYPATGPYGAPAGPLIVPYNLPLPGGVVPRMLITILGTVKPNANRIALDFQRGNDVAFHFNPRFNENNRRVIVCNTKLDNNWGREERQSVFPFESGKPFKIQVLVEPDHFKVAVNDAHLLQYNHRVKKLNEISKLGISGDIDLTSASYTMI

| Compound | IC50 (human Gal-3 (hGal-3); [1]) | IC50 (human Gal-1 (hGal-1)) | IC50 (human Gal-3 (hGal-3); [2]) |
| --- | --- | --- | --- |
| Cc1conc1[C@@H](S[C@@H]1O[C@H](CO)[C@H](O)[C@H](n2cc(-c3cc(F)c(F)c(F)c3)nn2)[C@H]1O)C(C)(C)O [Example 2.31.120R., (2S,3R,4S,5R,6R)-2-(((R)-2-Hydroxy-2-methyl-1-(4-methylisoxazol-3-yl)propyl)thio)-6-(hydroxymethyl)-4-(4-(3,4,5-trifluorophenyl)-1H-1,2,3-triazol-1-yl)tetrahydro-2H-pyran-3,5-diol] | 320 nM | 1800 nM | – |
| Cc1nc([C@H](S[C@@H]2O[C@H](CO)[C@H](O)[C@H](n3cc(-c4cc(F)c(F)c(F)c4)nn3)[C@H]2O)C(C)(C)O)c(C)o1 [Example 2.31.122S., (2S,3R,4S,5R,6R)-2-(((S)-1-(2,5-dimethyloxazol-4-yl)-2-hydroxy-2-methylpropyl)thio)-6-(hydroxymethyl)-4-(4-(3,4,5-trifluorophenyl)-1H-1,2,3-triazol-1-yl)tetrahydro-2H-pyran-3,5-diol] | 4120 nM | 11200 nM | – |
| Cc1cscc1C(S[C@@H]1O[C@H](CO)[C@H](O)[C@H](n2cc(-c3cc(F)c(F)c(F)c3)nn2)[C@H]1O)C(C)(C)O (stereo partly drawn) [Example 2.31.124., (2S,3R,4S,5R,6R)-2-((2-Hydroxy-2-methyl-1-(4-methylthiophen-3-yl)propyl)thio)-6-(hydroxymethyl)-4-(4-(3,4,5-trifluorophenyl)-1H-1,2,3-triazol-1-yl)tetrahydro-2H-pyran-3,5-diol] | 500 nM | 5150 nM | – |
| OC[C@H]1O[C@@H](S[C@H](c2ccccc2C(F)(F)F)C2(O)CC(F)(F)C2)[C@H](O)[C@@H](n2cc(-c3cc(F)c(F)c(F)c3)nn2)[C@H]1O [Example 2.33.112R., (2S,3R,4S,5R,6R)-2-(((R)-(3,3-Difluoro-1-hydroxycyclobutyl)(2-(trifluoromethyl)phenyl)methyl)thio)-6-(hydroxymethyl)-4-(4-(3,4,5-trifluorophenyl)-1H-1,2,3-triazol-1-yl)tetrahydro-2H-pyran-3,5-diol] | – | 670 nM | 140 nM |
| OC[C@H]1O[C@@H](S[C@@H](c2ccccc2C(F)(F)F)C2(O)CC(F)(F)C2)[C@H](O)[C@@H](n2cc(-c3cc(F)c(F)c(F)c3)nn2)[C@H]1O [Example 2.33.112S.] | – | 21700 nM | 11300 nM |
| Cc1ccccc1C(S[C@@H]1O[C@H](CO)[C@H](O)[C@H](n2cc(-c3cc(F)c(F)c(F)c3)nn2)[C@H]1O)C1(O)CC(C)C1 (stereo partly drawn) [Example 2.36.102., (2S,3R,4S,5R,6R)-2-(((1-Hydroxy-3-methylcyclobutyl)(o-tolyl)methyl)thio)-6-(hydroxymethyl)-4-(4-(3,4,5-trifluorophenyl)-1H-1,2,3-triazol-1-yl)tetrahydro-2H-pyran-3,5-diol] | – | 13200 nM | 460 nM |
| Cc1ccccc1[C@@H](S[C@@H]1O[C@H](CO)[C@H](O)[C@H](n2cc(-c3cc(F)c(F)c(F)c3)nn2)[C@H]1O)C1(O)CC(C)C1 (stereo partly drawn) [Example 2.36.102R., (2S,3R,4S,5R,6R)-2-(((1R)-(1-Hydroxy-3-methylcyclobutyl)(o-tolyl)methyl)thio)-6-(hydroxymethyl)-4-(4-(3,4,5-trifluorophenyl)-1H-1,2,3-triazol-1-yl)tetrahydro-2H-pyran-3,5-diol] | – | 3500 nM | 440 nM |
| Cc1ccccc1[C@H](S[C@@H]1O[C@H](CO)[C@H](O)[C@H](n2cc(-c3cc(F)c(F)c(F)c3)nn2)[C@H]1O)C1(O)CC(C)C1 (stereo partly drawn) [Example 2.36.102S., (2S,3R,4S,5R,6R)-2-(((1S)-(1-Hydroxy-3-methylcyclobutyl)(o-tolyl)methyl)thio)-6-(hydroxymethyl)-4-(4-(3,4,5-trifluorophenyl)-1H-1,2,3-triazol-1-yl)tetrahydro-2H-pyran-3,5-diol] | – | 54200 nM | 7200 nM |
| Cc1ccccc1C(S[C@@H]1O[C@H](CO)[C@H](O)[C@H](n2cc(-c3cc(F)c(F)c(F)c3)nn2)[C@H]1O)C1(O)CC(C)C1C (stereo partly drawn) [Example 2.37.102., (2S,3R,4S,5R,6R)-2-(((1-Hydroxy-2,3-dimethylcyclobutyl)(o-tolyl)methyl)thio)-6-(hydroxymethyl)-4-(4-(3,4,5-trifluorophenyl)-1H-1,2,3-triazol-1-yl)tetrahydro-2H-pyran-3,5-diol] | – | 5360 nM | 560 nM |

Other lines, results leading:

| IC50 (human Gal-3 (hGal-3); [1]) | IC50 (human Gal-1 (hGal-1)) | IC50 (human Gal-3 (hGal-3); [2]) | Compound |
| --- | --- | --- | --- |
| 730 nM | 3000 nM | – | Cc1conc1C(S[C@@H]1O[C@H](CO)[C@H](O)[C@H](n2cc(-c3cc(F)c(F)c(F)c3)nn2)[C@H]1O)C(C)(C)O (stereo partly drawn) [Example 2.31.120., (2S,3R,4S,5R,6R)-2-((2-Hydroxy-2-methyl-1-(4-methylisoxazol-3-yl)propyl)thio)-6-(hydroxymethyl)-4-(4-(3,4,5-trifluorophenyl)-1H-1,2,3-triazol-1-yl)tetrahydro-2H-pyran-3,5-diol] |
| 12400 nM | 61300 nM | – | Cc1conc1[C@H](S[C@@H]1O[C@H](CO)[C@H](O)[C@H](n2cc(-c3cc(F)c(F)c(F)c3)nn2)[C@H]1O)C(C)(C)O [Example 2.31.120S., (2S,3R,4S,5R,6R)-2-(((S)-2-Hydroxy-2-methyl-1-(4-methylisoxazol-3-yl)propyl)thio)-6-(hydroxymethyl)-4-(4-(3,4,5-trifluorophenyl)-1H-1,2,3-triazol-1-yl)tetrahydro-2H-pyran-3,5-diol] |
| 710 nM | 5030 nM | – | Cc1noc(C)c1C(S[C@@H]1O[C@H](CO)[C@H](O)[C@H](n2cc(-c3cc(F)c(F)c(F)c3)nn2)[C@H]1O)C(C)(C)O (stereo partly drawn) [Example 2.31.121., (2S,3R,4S,5R,6R)-2-((1-(3,5-Dimethylisoxazol-4-yl)-2-hydroxy-2-methylpropyl)thio)-6-(hydroxymethyl)-4-(4-(3,4,5-trifluorophenyl)-1H-1,2,3-triazol-1-yl)tetrahydro-2H-pyran-3,5-diol] |
| 880 nM | 2140 nM | – | Cc1nc(C(S[C@@H]2O[C@H](CO)[C@H](O)[C@H](n3cc(-c4cc(F)c(F)c(F)c4)nn3)[C@H]2O)C(C)(C)O)c(C)o1 (stereo partly drawn) [Example 2.31.122., (2S,3R,4S,5R,6R)-2-((1-(2,5-Dimethyloxazol-4-yl)-2-hydroxy-2-methylpropyl)thio)-6-(hydroxymethyl)-4-(4-(3,4,5-trifluorophenyl)-1H-1,2,3-triazol-1-yl)tetrahydro-2H-pyran-3,5-diol] |
| 370 nM | 670 nM | – | Cc1nc([C@@H](S[C@@H]2O[C@H](CO)[C@H](O)[C@H](n3cc(-c4cc(F)c(F)c(F)c4)nn3)[C@H]2O)C(C)(C)O)c(C)o1 [Example 2.31.122R., (2S,3R,4S,5R,6R)-2-(((R)-1-(2,5-Dimethyloxazol-4-yl)-2-hydroxy-2-methylpropyl)thio)-6-(hydroxymethyl)-4-(4-(3,4,5-trifluorophenyl)-1H-1,2,3-triazol-1-yl)tetrahydro-2H-pyran-3,5-diol] |
| 1220 nM | 2830 nM | – | CCC(O)(CC)[C@H](S[C@@H]1O[C@H](CO)[C@H](O)[C@H](n2cc(-c3cc(F)c(F)c(F)c3)nn2)[C@H]1O)c1conc1C [Example 2.32.120R., (2S,3R,4S,5R,6R)-2-(((R)-2-Ethyl-2-hydroxy-1-(3-methylisoxazol-4-yl)butyl)thio)-6-(hydroxymethyl)-4-(4-(3,4,5-trifluorophenyl)-1H-1,2,3-triazol-1-yl)tetrahydro-2H-pyran-3,5-diol] |
| 11300 nM | 77400 nM | – | CCC(O)(CC)[C@@H](S[C@@H]1O[C@H](CO)[C@H](O)[C@H](n2cc(-c3cc(F)c(F)c(F)c3)nn2)[C@H]1O)c1conc1C [Example 2.32.120S., (2S,3R,4S,5R,6R)-2-(((S)-2-Ethyl-2-hydroxy-1-(3-methylisoxazol-4-yl)butyl)thio)-6-(hydroxymethyl)-4-(4-(3,4,5-trifluorophenyl)-1H-1,2,3-triazol-1-yl)tetrahydro-2H-pyran-3,5-diol] |
| – | 1800 nM | 250 nM | OC[C@H]1O[C@@H](SC(c2ccccc2C(F)(F)F)C2(O)CC(F)(F)C2)[C@H](O)[C@@H](n2cc(-c3cc(F)c(F)c(F)c3)nn2)[C@H]1O (stereo partly drawn) [Example 2.33.112., (2S,3R,4S,5R,6R)-2-(((3,3-Difluoro-1-hydroxycyclobutyl)(2-(trifluoromethyl)phenyl)methyl)thio)-6-(hydroxymethyl)-4-(4-(3,4,5-trifluorophenyl)-1H-1,2,3-triazol-1-yl)tetrahydro-2H-pyran-3,5-diol] |
| – | 11000 nM | 1000 nM | Cc1ccccc1C(S[C@@H]1O[C@H](CO)[C@H](O)[C@H](n2cc(-c3cc(F)c(F)c(F)c3)nn2)[C@H]1O)C1(O)CCC1 (stereo partly drawn) [Example 2.34.102., (2S,3R,4S,5R,6R)-2-(((1-Hydroxycyclobutyl)(o-tolyl)methyl)thio)-6-(hydroxymethyl)-4-(4-(3,4,5-trifluorophenyl)-1H-1,2,3-triazol-1-yl)tetrahydro-2H-pyran-3,5-diol] |
| – | 6220 nM | 350 nM | Cc1ccccc1C(S[C@@H]1O[C@H](CO)[C@H](O)[C@H](n2cc(-c3cc(F)c(F)c(F)c3)nn2)[C@H]1O)C1(O)CC(C)(C)C1 (stereo partly drawn) [Example 2.35.102., (2S,3R,4S,5R,6R)-2-(((1-Hydroxy-3,3-dimethylcyclobutyl)(o-tolyl)methyl)thio)-6-(hydroxymethyl)-4-(4-(3,4,5-trifluorophenyl)-1H-1,2,3-triazol-1-yl)tetrahydro-2H-pyran-3,5-diol] |
| – | 2900 nM | 180 nM | Cc1ccccc1C(S[C@@H]1O[C@H](CO)[C@H](O)[C@H](n2cc(-c3cc(F)c(F)c(F)c3)nn2)[C@H]1O)C1(O)CCCC1 (stereo partly drawn) [Example 2.38.102., (2S,3R,4S,5R,6R)-2-(((1-Hydroxycyclopentyl)(o-tolyl)methyl)thio)-6-(hydroxymethyl)-4-(4-(3,4,5-trifluorophenyl)-1H-1,2,3-triazol-1-yl)tetrahydro-2H-pyran-3,5-diol] |

Source: patent publication US12404295B2, “(Hetero)aryl-methyl-thio-beta-D-galactopyranoside derivatives” (Idorsia Pharmaceuticals Ltd, priority 2019, dated 2025)
